From publication PMC11968506, “Toxicokinetics and analytical toxicology of the phenmetrazine-derived new psychoactive substance 3,4-methylenedioxyphenmetrazine studied by means of in vitro systems” (Archives of Toxicology, 2025)
Like-named read-outs stand apart in the source and are kept apart here.

How the values were obtained:
[1] = target: T1, CYP2B6 (Homo sapiens, UniProt P20813); assay: CYP inhibition cocktail assay in pHLM, CYP2B6 (bupropion); conditions: inhibitor 20 µM, bupropion 30 µM, pHLM 0.4 mg/mL, 15 min; control without inhibitor = 100%
T1 sequence (P20813 1-491): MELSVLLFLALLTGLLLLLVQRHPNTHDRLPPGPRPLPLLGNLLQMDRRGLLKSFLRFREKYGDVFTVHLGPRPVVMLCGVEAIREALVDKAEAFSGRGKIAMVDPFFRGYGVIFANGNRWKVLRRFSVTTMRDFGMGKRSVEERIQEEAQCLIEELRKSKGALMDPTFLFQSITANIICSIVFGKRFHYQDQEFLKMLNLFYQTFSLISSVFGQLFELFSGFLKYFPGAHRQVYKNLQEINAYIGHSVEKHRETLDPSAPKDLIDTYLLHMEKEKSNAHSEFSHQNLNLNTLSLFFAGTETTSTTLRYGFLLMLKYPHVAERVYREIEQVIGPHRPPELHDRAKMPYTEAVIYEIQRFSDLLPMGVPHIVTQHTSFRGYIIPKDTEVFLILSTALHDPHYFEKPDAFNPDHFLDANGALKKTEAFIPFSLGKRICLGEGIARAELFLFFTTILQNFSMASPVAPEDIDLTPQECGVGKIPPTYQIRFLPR
Description: (§1) A modified dual-cocktail based method (Dinger et al. [2014b]) was used. Substrate cocktail A consisted of 8.9 µM dextromethorphan (CYP2D6), 86 µM testosterone (CYP3A4), 3.5 µM diclofenac (CYP2C9), and 12 µM phenacetin (CYP1A2). Substrate cocktail B included 30 µM bupropion (CYP2B6), 2 µM amodiaquine (CYP2C8) and 21 µM omeprazole (CYP2C19). Substrate concentrations were near their respective Michaelis–Menten constant (Km) values (Dinger et al. [2014a]) and all concentrations are final. Enzyme inhibition was investigated using a positive control, a test group, a control group, an interference group, and a negative control. In the test group, specific inhibitors were replaced by MDPM (20 µM). Instead of inhibitors, phosphate buffer was used in the control group. Enzymes were replaced with phosphate buffer in the negative control group. The interference group was incubated like the control group, but the reaction was stopped with 20 µM MDPM in acetonitrile, also containing 2.5 µM trimipramine-d3. All groups were incubated with a NADPH-regenerating system, consisting of 5 mM isocitrate, 2 U/mL isocitrate dehydrogenase, 5 mM Mg^2+, and 1.2 mM NADP^+. Further, substrate cocktail A or B, 90 mM phosphate buffer (pH 7.4), and 200 U/mL superoxide dismutase were added to each group. […] All groups were preincubated for 10 min at 37 °C. Then, pHLM (0.4 mg microsomal protein/mL) was added to each group except the negative control. Incubations were done for 15 min at 37 °C. Therefore, 50 µL of acetonitrile (− 20 °C) containing 2.5 µM trimipramine-d3 as internal standard was added. Incubations were done in triplicates and organic solvent in the incubation mixture was below 1% (Chauret et al. [1998]). Afterwards the samples were vortexed and centrifuged for 2 min at 18,407×g. 70 µL of the supernatant were transferred to autosampler vials and 10 µL were injected onto the LC-HRMS/MS system. Enzyme inhibition was evaluated by metabolite formation. […] The following settings were used: unpaired; one-tailed; significance level, 0.05; confidence intervals, 99%.

[2] = In vitro metabolism by pooled human liver microsomes; type: in vitro ADME; conditions: MDPM 25 µM, pHLM 1 mg/mL, 60 and 120 min; tentative identification
Description: Incubations with pHLM were in accordance with previous publications and minor modifications (Richter et al. [2017]). First, 2.5 mM isocitrate, 0.8 U/mL isocitrate dehydrogenase, 100 U/mL superoxide dismutase, 0.6 mM NADP^+, 2.5 mM Mg^2+ and pHLM (1 mg microsomal protein/mL) were preincubated for 10 min at 37 °C. […] Substances were incubated for 60 and 120 min at 37 °C. All concentrations are final concentrations, and incubations were done in duplicates. 50 µL aliquots were transferred to a new reaction tube at both timepoints. The reaction was stopped by adding 30 µL acetonitrile (− 20 °C) with 2.5 µM trimipramine-d3 as an internal standard. Negative control samples without enzymes and blank samples without substrates were performed to identify not metabolically formed compounds and to confirm the absence of interfering compounds.

[3] = In vitro metabolism by HepaRG cells; type: in vitro ADME, human; conditions: MDPM 25 µM and 250 µM, tentative identification
Description: Cell incubations were performed in a monolayer assay as previously described (Richter et al. [2019]) and in accordance with the manufacturer’s instructions. HepaRG cells were thawed and resuspended in 13.5 mL (~ 740,000 cells/mL) thaw and seed medium at 37 °C. Thaw and seed medium consisted of Williams E medium, 100 U/mL penicillin, 100 µg/mL streptomycin, GlutaMAX and HPRG670 supplement. Cells were handled under sterile conditions using a laminar flow bench class II (Thermo Scientific, TF, Schwerte, Germany). Aliquots of 100 µL cell suspension were seeded on collagen-coated 96-well plates (~ 74,000 cells/well). Evaporation was minimized by filling the outer wells with 100 µL thaw and seed medium. Cells were preincubated for 4 h in an incubator (Binder, Tuttlingen, Germany) at 37 °C, 95% air humidity, and 5% CO2. After preincubation, 50 µL of the thaw and seed medium was replaced with 50 µL MDPM solution (25 µM and 250 µM final concentrations), followed by an incubation for 24 h at 37 °C, 95% air humidity, and 5% CO2 atmosphere. MDMA or quetiapine (25 µM and 250 µM final concentrations, respectively) were incubated as positive controls. All incubations were done in triplicates. Each well contained 0.5% (v/v) DMSO. […]

[4] = In vitro metabolism by pooled human liver S9 fraction; type: in vitro ADME; conditions: MDPM 25 µM, pHLS9 2 mg/mL, 60 and 360 min; tentative identification
Description: Incubations with pHLS9 were performed in accordance with previous publications and minor adjustments (Richter et al. [2017]). First, 25 μg/mL alamethicin (UGT reaction mix B), pHLS9 (2 mg microsomal protein/mL), 0.1 mM AcCoA, 2.3 mM acetylcarnitine, 8 U/mL carnitine acetyltransferase, 2.5 mM isocitrate, 0.8 U/mL isocitrate dehydrogenase, 100 U/mL superoxide dismutase, 0.6 mM NADP^+ and 2.5 mM Mg^2+ were preincubated for 10 min at 37 °C. Then, 2.5 mM UDP-glucuronic acid (UGT reaction mix A), 40 µM PAPS, 1.2 mM SAM, 1 mM DTT and 10 mM GSH were added. The reaction was started by adding the respective substrate MDPM, MDMA, or quetiapine (25 µM each). MDMA and quetiapine were incubated as positive controls. Negative control samples without enzymes and blank samples without substrates were incubated to identify not metabolically formed compounds and to confirm the absence of interfering compounds. […] Aliquots (50 µL) were transferred to a new reaction tube after 60 and 360 min. […] Samples were vortexed, stored at − 20 °C for 30 min, and centrifuged for 2 min at 18,407×g.

[5] = target: T2, CYP2D6 (Homo sapiens, UniProt P10635); assay: Monooxygenase mapping (ten human cDNA-expressed CYP isoforms and FMO3); type: in vitro ADME; parameters: Then, pHLM (0.4 mg microsomal protein/mL) was added to each group except the negative control; tissue Discovery Life Sciences; host or cells: pooled human liver microsomes, 25 donors; conditions: MDPM 25 µM, CYP 50 pmol/mL each or FMO3 0.25 mg protein/mL, 90 and 270 min
Description: As described elsewhere (Wagmann et al. [2016]) and with minor modifications, MDPM (25 µM) was incubated with 2.5 mM isocitrate, 0.8 U/mL isocitrate dehydrogenase, 100 U/mL superoxide dismutase, 0.6 mM NADP^+, 2.5 mM Mg^2+ and CYP1A2, CYP2A6, CYP2B6, CYP2C8, CYP2C9, CYP2C19, CYP2D6, CYP2E1, CYP3A4, CYP3A5 (50 pmol/mL each), or FMO3 (0.25 mg protein/mL) for 90 and 270 min at 37 °C. For incubations with CYP2A6 or CYP2C9, phosphate buffer was replaced with 90 mM Tris buffer, according to the manufacturer’s guideline. Thirty µL aliquots were taken at both timepoints. The reaction was stopped using 20 µL acetonitrile (− 20 °C) with 2.5 µM trimipramine-d3 as an internal standard. All incubations were done in duplicates and concentrations are final. […] Negative control samples without enzymes and blank samples without substrate were incubated to identify not metabolically formed compounds and to confirm the absence of interfering compounds.

[6] = cited from earlier work
[7] = test system: CYP2C8; conditions: 100 µM trimethoprim; ref Niemi et al. 2004; cited from earlier work
[8] = target: T3, CYP2C8 (Homo sapiens, UniProt P10632); assay: CYP inhibition cocktail assay in pHLM, CYP2C8 (amodiaquine); conditions: inhibitor 100 µM, amodiaquine 2 µM, pHLM 0.4 mg/mL, 15 min; control without inhibitor = 100%
T3 sequence (P10632 1-490): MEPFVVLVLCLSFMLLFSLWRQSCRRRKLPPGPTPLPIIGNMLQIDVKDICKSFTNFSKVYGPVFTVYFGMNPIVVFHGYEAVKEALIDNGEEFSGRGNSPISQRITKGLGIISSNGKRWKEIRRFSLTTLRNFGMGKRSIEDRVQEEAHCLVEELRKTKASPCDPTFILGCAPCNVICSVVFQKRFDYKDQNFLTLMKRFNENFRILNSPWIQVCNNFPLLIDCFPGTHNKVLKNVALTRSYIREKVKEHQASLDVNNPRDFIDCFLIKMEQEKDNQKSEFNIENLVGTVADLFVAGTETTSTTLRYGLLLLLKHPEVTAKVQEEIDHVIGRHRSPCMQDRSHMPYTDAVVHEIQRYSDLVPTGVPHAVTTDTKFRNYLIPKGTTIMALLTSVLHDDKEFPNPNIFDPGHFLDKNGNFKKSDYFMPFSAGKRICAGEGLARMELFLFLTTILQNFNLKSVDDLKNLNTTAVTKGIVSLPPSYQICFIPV
Description: as §1

[9] = target: CYP2C9 (Homo sapiens, UniProt P11712); assay: CYP inhibition cocktail assay in pHLM, CYP2C9 (diclofenac); conditions: inhibitor 20 µM, diclofenac 3.5 µM, pHLM 0.4 mg/mL, 15 min; control without inhibitor = 100%
Description: as §1

[10] = target: CYP2C19 (Homo sapiens, UniProt P33261); assay: CYP inhibition cocktail assay in pHLM, CYP2C19 (omeprazole); conditions: inhibitor 20 µM, omeprazole 21 µM, pHLM 0.4 mg/mL, 15 min; control without inhibitor = 100%
Description: as §1

[11] = target: T2, CYP2D6; assay: CYP inhibition cocktail assay in pHLM, CYP2D6 (dextromethorphan); conditions: inhibitor 20 µM, dextromethorphan, pHLM; versus control without inhibitor
Description: as §1

[12] = ref Alberto-Silva et al. 2024; cited from earlier work

T2 sequence (P10635 whole entry, canonical isoform): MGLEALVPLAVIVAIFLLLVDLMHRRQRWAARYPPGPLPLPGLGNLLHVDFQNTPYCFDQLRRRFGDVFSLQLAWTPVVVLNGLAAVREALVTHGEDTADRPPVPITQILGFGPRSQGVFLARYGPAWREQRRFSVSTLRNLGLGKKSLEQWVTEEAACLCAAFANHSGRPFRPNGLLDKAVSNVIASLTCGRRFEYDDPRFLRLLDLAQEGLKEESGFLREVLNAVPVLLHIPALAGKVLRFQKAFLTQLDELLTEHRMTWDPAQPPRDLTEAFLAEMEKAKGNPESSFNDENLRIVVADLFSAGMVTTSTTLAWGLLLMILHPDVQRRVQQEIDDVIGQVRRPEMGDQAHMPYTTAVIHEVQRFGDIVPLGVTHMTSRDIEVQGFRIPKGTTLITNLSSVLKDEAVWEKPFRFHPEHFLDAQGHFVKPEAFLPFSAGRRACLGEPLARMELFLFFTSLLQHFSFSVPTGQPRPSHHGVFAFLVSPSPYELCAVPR
Chain of CYP2C19 (P33261 whole entry): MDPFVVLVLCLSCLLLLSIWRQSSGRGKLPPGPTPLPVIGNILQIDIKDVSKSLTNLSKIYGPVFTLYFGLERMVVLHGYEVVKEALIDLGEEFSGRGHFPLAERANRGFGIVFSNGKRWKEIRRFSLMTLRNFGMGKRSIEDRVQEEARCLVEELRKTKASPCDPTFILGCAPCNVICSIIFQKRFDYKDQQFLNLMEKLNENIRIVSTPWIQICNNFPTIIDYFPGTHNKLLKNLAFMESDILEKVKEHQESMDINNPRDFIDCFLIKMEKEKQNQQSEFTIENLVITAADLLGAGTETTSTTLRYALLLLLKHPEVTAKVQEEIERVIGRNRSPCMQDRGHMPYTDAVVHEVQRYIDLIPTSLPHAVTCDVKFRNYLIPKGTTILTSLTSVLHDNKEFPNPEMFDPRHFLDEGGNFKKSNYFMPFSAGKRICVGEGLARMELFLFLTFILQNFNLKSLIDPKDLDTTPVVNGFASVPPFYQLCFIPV
Chain of CYP2C9 (P11712 whole entry): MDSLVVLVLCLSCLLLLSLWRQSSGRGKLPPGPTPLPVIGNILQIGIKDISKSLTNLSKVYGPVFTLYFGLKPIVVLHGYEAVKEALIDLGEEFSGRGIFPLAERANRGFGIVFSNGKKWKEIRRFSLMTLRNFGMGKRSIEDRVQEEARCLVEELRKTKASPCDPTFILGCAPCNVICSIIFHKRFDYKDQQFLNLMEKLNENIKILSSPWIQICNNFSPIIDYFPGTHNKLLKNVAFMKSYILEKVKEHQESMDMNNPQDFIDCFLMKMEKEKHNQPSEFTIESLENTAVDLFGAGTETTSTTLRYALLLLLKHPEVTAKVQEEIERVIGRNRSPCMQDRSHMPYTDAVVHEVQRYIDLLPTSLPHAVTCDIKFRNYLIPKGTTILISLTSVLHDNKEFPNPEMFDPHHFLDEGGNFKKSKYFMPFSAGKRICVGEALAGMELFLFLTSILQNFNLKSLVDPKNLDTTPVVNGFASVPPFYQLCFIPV

SMILES: CN[C@H]1CC[C@@H](c2ccc(Cl)c(Cl)c2)c2ccccc21 [Sertraline, sertraline, reference compound]
- CYP2B6 metabolite formation [1]: 24%

SMILES: CC1NCCOC1c1ccc(O)c(O)c1 (stereo not drawn) [M1, Demethylenyl-MDPM]
- metabolite detection in pHLM incubations [2]: found
- metabolite detection in HepaRG incubations [3]: could not be identified
- metabolite detection in pHLS9 incubations [4]: could not be identified
- isozymes forming the demethylenyl metabolite (O-demethylenation of MDPM) [5]: only found in CYP2D6 incubations

SMILES: COc1cc(C2OCCNC2C)ccc1O (stereo not drawn) [M2]
- metabolite detection in pHLS9 incubations [4]: found

SMILES: CC(N)Cc1ccccc1 (stereo not drawn) [amphetamine]
- plasma protein binding (PPB) ([6]; ref Franksson and Anggard 1970, Losacker et al. 2021): 20–30%

SMILES: CC1NCCOC1c1ccccc1 (stereo not drawn) [phenmetrazine]
- plasma protein binding (PPB) ([6]; ref Franksson and Anggard 1970): 20%

SMILES: COc1cc(Cc2cnc(N)nc2N)cc(OC)c1OC [Trimethoprim, trimethoprim, reference compound]
- maximum inhibition of CYP2C8 activity [7]: ≤ 40%
- CYP2C8 metabolite formation [8]: 81%

SMILES: Nc1ccc(S(=O)(=O)Nc2ccnn2-c2ccccc2)cc1 [Sulfaphenazole, sulfaphenazole, reference compound]
- CYP2C9 metabolite formation [9]: 9%

SMILES: OC(Cn1cncn1)(Cn1cncn1)c1ccc(F)cc1F [Fluconazole, fluconazole, reference compound]
- CYP2C19 metabolite formation [10]: 48%

SMILES: C=C[C@H]1C[N@@]2CC[C@H]1C[C@@H]2[C@@H](O)c1ccnc2ccc(OC)cc12 [Quinidine, quinidine, reference compound]
- decrease in CYP2D6 activity (inhibition) [11]: 99%

SMILES: CNC(C)Cc1ccc2c(c1)OCO2 (stereo not drawn) [MDMA, 3,4-methylenedioxymethamphetamine]
- plasma protein binding (PPB) ([6]; ref Wan Aasim et al. 2017): 43–51%
- in vitro half-life [12]: over 150 min
